Laboratory results from patent US5547940A, “Method for stimulating proliferation of colon cells using POMC76-103” (Ludwig Institute for Cancer Research, priority 1994, dated 1996).
pEC50: −log10 of the molar value. Values joined by “and” are separate entries in the source; they are usually repeats but may differ in a detail not shown here. Equal entries are not always repeated. Where two headings read alike, the source gives them in different places. Peptide text beside a SMILES is read from it.

Tests used:
[1] = tested on: LIM 1215 cells; test: Colony formation of LIM 1215 cells in semi-solid agar; assay type: cell-based, human; conditions: rhEGF 10 ng/ml alone
Protocol: Colony formation using various factors was studied. Cells of cell line LIM 1215 were cloned in semi-solid agar (0.3%) following Whitehead et al., Int. J. Canc. 46:858-863 (1990). Briefly, the cells were trypsinized and resuspended in RPMI 1640 plus 5% FCS. Cells in the suspension were counted and then resuspended in a mixture of 0.3% agar in RPMI 1640 plus 10% FCS (40° C.), at a concentration of 10^4 cells per ml. The mixture was plated in 1.5 volumes in 35 mm^2 dishes, and allowed to set. Plates were then incubated at 37° C. in 5% CO2 and 100% humidity for 14 days. A solution of 0.1% crystal violet was aded to the plates, and colonies of more than 40 cells were counted.
Conditioned medium was prepared by incubating confluent monolayers of colon carcinoma cell lines with fresh RPMI 1640 plus 5% FCS for 48 hours. Medium was then removed, sterilized by filtration, and added to the agar plates at a final concentration of 10% (v/v). […] See Whitehead, supra.
The effect of the POMC76-103, alone and combination with epidermal growth factor (EGF) was investigated. The peptide and recombinant human EGF ("rhEGF") were tested alone, and combined, in colony formation assays as described supra.

[2] = tested on: colonic crypt cells; test: Growth factors together with LIM 2537 conditioned medium on colonic crypt cells (synergism); assay type: cell-based; conditions: tested on murine colonic crypt cells
Protocol: In another set of experiments, human colonic crypt cells were tested with conditioned medium from LIM 2537, together with different growth factors.

[3] = tested on: LIM 1215 cells
From the text: The material was synthesized, using art recognized techniques, and was then used in a mitogenic assay on LIM 1215 cells, following Nice et al., J. Biol. Chem. 266: 14425-14430 (1991), which is incorporated by reference in its entirety.

For rhEGF: recombinant human EGF, which “LIM 1215 Colony Stimulating Activity, Colonies” value [1] is on record?
The value was 300 and 320.

For PDGF, which “synergism with the LIM 2537 conditioned medium” value (“synergism” for short) [2] is on record?
The value was “None of these factors showed any synergism”.

For EGF: epidermal growth factor, which stimulation index ([3]; LIM 1215 cells, FIGS. 16A/16B) is on record?
The stimulation index was 8 fold.

What about the pEC50 ([3]; mitogenic assay, LIM 1215 cells) of the same compound?
Its pEC50 is 10.30.

And the “synergism” value [2]?
Its value is “None of these factors showed any synergism”.

With IL-6: interleukin 6 as the compound, how does the “synergism” value [2] read?
Its value is “None of these factors showed any synergism”.

`CSCC[C@H](NC(=O)[C@@H](NC(=O)[C@H](Cc1ccc(O)cc1)NC(=O)[C@@H](N)CCCCN)C(C)C)C(=O)NCC(=O)N[C@@H](Cc1c[nH]cn1)C(=O)N[C@@H](Cc1ccccc1)C(=O)N[C@@H](CCCNC(=N)N)C(=O)N[C@@H](Cc1c[nH]c2ccccc12)C(=O)N[C@@H](CC(=O)O)C(=O)N[C@@H](CCCNC(=N)N)C(=O)N[C@@H](Cc1ccccc1)C(=O)NCC(=O)N[C@@H](CCCNC(=N)N)C(=O)N[C@@H](CCCNC(=N)N)C(=O)N[C@@H](CC(N)=O)C(=O)NCC(=O)N[C@@H](CO)C(=O)N[C@@H](CO)C(=O)N[C@@H](CO)C(=O)N[C@@H](CO)C(=O)NCC(=O)N[C@H](C(=O)NCC(=O)NCC(=O)N[C@@H](C)C(=O)N[C@@H](C)C(=O)N[C@@H](CCC(N)=O)C(=O)O)C(C)C` [POMC76-103] (H-KYVMGHFRWDRFGRRNGSSSSGVGGAAQ-OH) was tested. Which pEC50 [3] did it give?
Its pEC50 is roughly 10.12.
